Reference: PMC13492380, “Dissecting Structural and Functional Determinants of Microtubules Stabilization through Guided Chemical Modulation” (Journal of Medicinal Chemistry, 2026)
Like-named read-outs stand apart in the source and are kept apart here.

How the values were obtained:
[1] = test system: Dynein Light Chain LC8 (retrograde transport) in SH-SY5Y cells; assay: Cy5-DBP dynein binding probe tracking, live-cell imaging; assay type: cell-based, human; conditions: for Cy5-DBP Distance, normalized to control / Cy5-DBP Speed, normalized to control: 1 μM PTX or 2.5 μM FTX2, 1a or 1b, mean ± SEM
Description: Building on our ability to chemically modulate MT structure, we next explored how these changes influence signaling patterns involved in MAPs interactions. Given that MTs are key players in intracellular transport – guiding organelles, vesicles and chromosomes via molecular motors like dyneins and kinesins – we assessed the impact of our compounds on transport dynamics in neuroblastoma SH-SY5Y cells. We combined live-cell imaging with previously developed tracking peptides (Figure A): Cy5-DBP, which encompasses the sequence that specifically recognizes Dynein Light Chain LC8 (retrograde transport), and Cy5-KBP, with a sequence that binds to the tetratricopeptide repeat of the kinesin-1 light chain KLC1 (anterograde transport). […] However, this was for a short incubation period (1 to 2.5 h, including imaging time) to avoid mitotic arrest or compromise cell viability. We then assessed particle behavior by measuring mean track displacement and mean track velocity.
Cy5-KBP and Cy5-DBP tracking peptides were synthesized at CIB-Margarita Salas (CSIC), following a published protocol. Briefly, the peptide chains were assembled via solid phase peptide synthesis (SPPS) using fluorenylmethyloxycarbonyl (Fmoc) as N-terminal protecting group and, subsequently labeled with the organic dye cyanine 5 (Cy5) via a maleimide–thiol reaction between the N-terminal cysteine residues of the peptides and the commercially available Cy5-maleimide. The final peptides were purified via reverse phase HPLC, dissolved in DMSO to a final 2.5 mM concentration and stored in small aliquots at −20 °C. SH-SY5Y cells were seeded into μ-Slide 8-wells ibiTreat plates (ibidi, flat polymer coverslip-bottom, tissue culture treated) at a concentration of 35,000 cells/well and incubated for 48 h at 37 °C and 5% CO2. […] After this time, the culture medium was replaced by the drug working solution containing either Cy5-KBP or Cy5-DBP, and the plate was incubated for an additional 15 min at 37 °C and 5% CO2. Then, the culture medium was replaced with drug working solution without labeled peptide and the cells were imaged using a confocal laser scanning microscope Leica TCS SP8 with a 63x oil immersion objective that included a humidified incubation chamber, a CO2 controller and a heating unit. Cy5 dye was excited at 635 nm and the fluorescence emission was collected at 645–690 nm. Images were recorded every 1.793 s for 3 min as 2-layer-z-stacks. For each condition, two to three different fields were imaged in two separate experiments.
Single-peptide trajectories were tracked with the TrackMate plugin from the Fiji package software (https://imagej.net/TrackMate). Particles with an estimated blob diameter of 1–1.5 μm were detected using the Laplacian of Gaussian (LoG) detector and linked with the Linear motion LAP tracker. Only spots that were at a maximum distance of 2 μm were linked. Trajectories with less than 6 spots were discarded since they were probably artifactual, and track mean displacement and track mean velocity were calculated and normalized to control cells. Data were further analyzed with MATLAB to perform a Mean Square Displacement (MSD) analysis to determine the mode of displacement of the peptides followed over time. Briefly, for each trajectory the MSD function was calculated and its log–log representation fitted with a linear function (log(MSD(τ)) = […] x log(τ) + C). MSD curves with an R^2 coefficient <0.8 were removed. The slope (α) of each MSD curve determines the motion type of each particle and particles were classified into: constrained particles (CM) α < 1, Brownian particles (BM) α = 1, and transported particles (TM) α > 1. Two independent experiments were performed using three biological replicates (N = 6). Statistical analyses of normalized track mean displacement and track mean velocity were performed using an unpaired t test with Welch’s correction in GraphPad Prism 8 software. […]

[2] = test system: Kb-V1 cells (overexpressing PgP); assay: MTT cytotoxicity assay, Kb-V1; conditions: for IC50: Homo sapiens, KB-V1, 48 h, read-out: Cytotoxicity IC50 Kb-V1; for R/S (resistant to sensitive ratio): IC50 Kb-V1 / IC50 Kb-3.1
Protocol: Antiproliferative assays were performed as described. […] Then, increasing concentrations of drugs were added and incubated for 48 h prior to the reaction with the MTT solution. IC50 values were obtained by fitting the experimental data (absorbance at 570/690 nm) to a four-parameter logistic curve using SigmaPlot 14.5 software package (Systat Software, Inc., San Jose, CA, USA) and IC50 values were expressed as mean ± SEM from three independent experiments, each performed in duplicate.

tubulin = assay: Tubulin polymerization time course (absorbance 350 nm); assay type: biochemical, calf; conditions: 25 μM tubulin in PEDTA buffer, 35 μM compound, 37 °C
Protocol: Purified calf brain tubulin and chemicals were obtained as previously described. Tau-mCherry was expressed and purified as described previously. Human Kif5B-EGFP (amino acids 1-905), containing a C terminal fluorescent-tag followed by a 3C protease cleavage site and a 6 × His-tag was expressed and purified as in with some modifications. Prior to purification, cells were resuspended in 1:1 ratio of lysis buffer (30 mM HEPES pH 7.5, 300 mM NaCl, 0.5 mM ATP, 5% glycerol, 20 mM imidazole, […]) supplemented with 1× Protease inhibitor cocktail and benzonase to the final concentration of 25 units/ml. Cells were homogenized by repeated pipetting. Cells were lysed by spinning for 45 min at 40,000 rpm in 45 Ti fixed-angle rotor (Beckman Coulter) at 4 °C. The supernatant was incubated with pre-equilibrated HisPUR NiNTA agarose resin (Thermo Fisher Scientific) for 1 h in a tightly closed gravity-flow column (Thermo Fisher Scientific) at 4 °C by slowly rotating. Subsequently, the resin was washed once lysis buffer and then with buffer B (30 mM HEPES pH 7.5, 300 mM NaCl, 0.5 mM ATP, 5% glycerol, 30 mM imidazole, […]). The protein was eluted from the resin after an overnight cleavage of the 6 × His-tag with 3C HRV protease in lysis buffer at 4 °C. The eluted protein was further purified via size exclusion chromatography on Superdex 200 10/300 GL column equilibrated in exclusion buffer (30 mM HEPES pH 7.5, 300 mM NaCl, 0.5 mM ATP, 5% glycerol, […]). Peak fractions were analyzed via SDS-PAGE, pooled and the protein was concentrated with Amicon Ultra-15 Centrifugal Filter tubes (Millipore). Purified proteins were aliquoted, snap-frozen in liquid N2, and stored at −80 °C.
Tubulin polymerization assays were performed in PEDTA (10 mM NaPi, 1 mM EDTA, 0.1 mM GTP pH 7.0) or GAB (10 mM NaPi, 3.4 M glycerol, 1 mM EGTA, 0.1 mM GTP pH 6.7) buffers supplemented with 0.9 mM GTP and 4 mM MgCl2.

[3] = test system: taxane site of assembled cross-linked MTs; conditions: cited from earlier work
[4] = equilibrium constants from anisotropy measurements, ref footnote c 'As in ref .' (number not given)
[5] = ref footnote b 'As in ref .' (number not given)

Row | SMILES | Cy5-DBP Distance, normalized to control [1] | Cy5-DBP Speed, normalized to control [1] | IC50 [2] [µM] | R/S (resistant to sensitive ratio) [2] | Polymerization v max (tubulin) | K b 26 °C [3, 4] | K b 35 °C [3, 4] | K b 42 °C [3, 4] | reduction of Cy5-DBP particle displacement vs nontreated control cells ([1]; 1 μM PTX) | K b 26 °C [3, 5] | K b 35 °C [3, 5] | K b 42 °C [3, 5] | ΔG 0 app at 26 °C [3, 5] | ΔS 0 app [3, 5]
1 | CC(=O)OC1C(=O)C2(C)C(OC(=O)CCCCC(=O)OC3CCc4ccccc43)CC3OCC3(OC(C)=O)C2C(OC(=O)c2ccccc2)C2(O)CC(OC(=O)C(O)C(NC(=O)c3ccccc3)c3ccccc3)C(C)=C1C2(C)C (stereo not drawn) [1a, 7-O-(6″-O-(2‴,3‴-Dihydroinden-1‴-yl)hexanedioyl) Paclitaxel] | 0.92 ± 0.01 | 0.98 ± 0.02 | > 40 | >142 | 1.19 × 10^–3 min^–1 | – | – | – | – | – | – | – | – | –
2 | COc1ccc2c(c1)CC(NC(=O)CCCCCCCC(=O)OC1CC3OCC3(OC(C)=O)C3C(OC(=O)c4ccccc4)C4(O)CC(OC(=O)C(O)C(NC(=O)c5ccccc5)c5ccccc5)C(C)=C(C(OC(C)=O)C(=O)C13C)C4(C)C)CC2 [1b, 7-O-((S)-9″-(7‴-Methoxy-1‴,2‴,3‴,4‴-tetrahydronaphthalen-2‴-yl)amino) −9″-oxononanoyl) Paclitaxel] | 0.92 ± 0.01 | 1.07 ± 0.01 | 19 | 127 | 1.44 × 10^–4 min^–1 | – | – | – | – | – | – | – | – | –
3 | CC(=O)O[C@H]1C(=O)[C@]2(C)[C@@H](OC(=O)[C@H](C)NC(=O)c3ccc(-c4c5cc(F)c(=O)cc-5oc5cc(O)c(F)cc45)c(C(=O)O)c3)C[C@H]3OC[C@@]3(OC(C)=O)[C@H]2[C@H](OC(=O)c2ccccc2)[C@]2(O)C[C@H](OC(=O)[C@H](O)[C@@H](NC(=O)c3ccccc3)c3ccccc3)C(C)=C1C2(C)C [FTX2, Flutax2] | 1.06 ± 0.02 | 1.21 ± 0.02 | – | – | 1.42 × 10^–3 min^–1 | (5.9 ± 0.3) × 10^7 M-1 | (2.2 ± 0.2) × 10^7 M-1 | (1.8 ± 0.2) × 10^7 M-1 | – | – | – | – | – | –
4 | CC(=O)O[C@H]1C(=O)[C@@]2(C)[C@H]([C@H](OC(=O)c3ccccc3)[C@]3(O)C[C@H](OC(=O)[C@H](O)[C@@H](NC(=O)c4ccccc4)c4ccccc4)C(C)=C1C3(C)C)[C@]1(OC(C)=O)CO[C@@H]1C[C@@H]2O [PTX, Paclitaxel] | – | – | 2.7 ± 0.6 | – | 1.25 × 10^–2 min^–1 | – | – | – | approximately 20% | (2.64 ± 0.17) × 10^7 M-1 | (1.43 ± 0.17) × 10^7 M-1 | (0.94 ± 0.23) × 10^7 M-1 | –41.7 ± 0.2 kJ mol^–1 | –29.3 ± 13.1 J mol ^aK^–1
